Test results taken from ChEMBL document CHEMBL5729129, “Apoptosis signal-regulating kinase 1 (ASK 1) inhibitor compounds” (2022).

Legend:
[1] = target: T1, Mitogen-activated protein kinase kinase kinase 5 (Homo sapiens, UniProt Q99683); assay: ADP-Glo Assay: Table 3: The ability of test compounds to inhibit ASK1 kinase activity was determined using the luminescent ADP-Glo™ Kinase Assay and Myelin Basic Protein (MBP) as a substrate (Promega Corporation, Madison, Wis.). During the kinase reaction, ASK1 utilizes ATP and generates ADP. The remaining ATP is then depleted by addition of the ADP-Glo™ reagent which also terminates the reaction. Subsequent addition of the Kinase Detection Reagent converts the ADP that was produced during the kinase reaction to ATP, and this newly synthesized ATP is converted to light using the luciferase/luciferin reactions. The assay was performed according to the manufacturer's instructions. Briefly, purified, recombinant ASK1 (amino acids 649-946) (10-20 ng/well) was added to a 384-well, F bottom, small volume, HIbase, white plate (Greiner Bio-One, Monroe, N.C. #784075) containing 1-2 μL 5× test compound or vehicle control (diluted 1:20 from a 100% DMSO stock solution into 1× Reaction Buffer A). The enzyme was allowed to pre-incubate with test compound from 15-120 min at 30° C. before the addition of the ATP/substrate mix (final concentrations of 50 μM ATP+250 ng MBP in 1× Reaction Buffer A). The mixture was then incubated at room temperature for 40 min before the addition of ADP-Glo™ reagent and a second 40 minute room temperature incubation. […]
T1 sequence (Q99683 whole entry): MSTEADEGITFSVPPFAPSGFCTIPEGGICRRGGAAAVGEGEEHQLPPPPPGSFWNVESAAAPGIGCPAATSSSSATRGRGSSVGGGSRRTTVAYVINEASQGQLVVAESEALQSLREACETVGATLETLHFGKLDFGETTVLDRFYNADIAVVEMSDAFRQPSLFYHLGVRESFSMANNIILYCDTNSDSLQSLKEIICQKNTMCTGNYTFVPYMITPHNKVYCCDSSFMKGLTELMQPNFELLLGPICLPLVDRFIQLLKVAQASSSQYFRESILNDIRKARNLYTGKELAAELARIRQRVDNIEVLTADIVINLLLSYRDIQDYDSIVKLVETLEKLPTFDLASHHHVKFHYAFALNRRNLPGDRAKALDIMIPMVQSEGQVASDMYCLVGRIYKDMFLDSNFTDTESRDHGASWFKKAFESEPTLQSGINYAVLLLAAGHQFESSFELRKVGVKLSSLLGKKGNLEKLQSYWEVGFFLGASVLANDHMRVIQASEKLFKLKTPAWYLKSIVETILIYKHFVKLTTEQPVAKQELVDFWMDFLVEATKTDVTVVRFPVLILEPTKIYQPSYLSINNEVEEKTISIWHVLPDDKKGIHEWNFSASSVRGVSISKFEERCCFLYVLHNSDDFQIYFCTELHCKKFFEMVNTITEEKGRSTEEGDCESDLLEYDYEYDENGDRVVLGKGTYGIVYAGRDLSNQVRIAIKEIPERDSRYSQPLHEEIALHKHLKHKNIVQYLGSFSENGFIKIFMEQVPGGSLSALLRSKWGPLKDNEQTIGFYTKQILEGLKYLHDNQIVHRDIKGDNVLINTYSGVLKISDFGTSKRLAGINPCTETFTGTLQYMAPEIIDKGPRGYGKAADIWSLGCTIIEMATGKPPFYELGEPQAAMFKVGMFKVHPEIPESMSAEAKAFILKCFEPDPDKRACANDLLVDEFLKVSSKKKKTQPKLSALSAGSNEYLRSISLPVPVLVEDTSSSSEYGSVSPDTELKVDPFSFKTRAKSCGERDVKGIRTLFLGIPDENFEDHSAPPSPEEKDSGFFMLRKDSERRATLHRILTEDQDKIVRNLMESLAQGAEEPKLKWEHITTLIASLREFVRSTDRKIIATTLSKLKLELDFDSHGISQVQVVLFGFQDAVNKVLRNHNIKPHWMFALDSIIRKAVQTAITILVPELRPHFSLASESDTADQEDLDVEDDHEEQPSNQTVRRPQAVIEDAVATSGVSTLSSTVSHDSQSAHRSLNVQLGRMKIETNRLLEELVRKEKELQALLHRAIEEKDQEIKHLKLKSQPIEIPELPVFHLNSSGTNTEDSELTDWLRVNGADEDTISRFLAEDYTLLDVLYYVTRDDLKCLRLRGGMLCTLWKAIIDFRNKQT

Lysyl oxidase homolog 2 = target: T2, Lysyl oxidase homolog 2 (Homo sapiens, UniProt Q9Y4K0); assay: Amine Oxidase Activity Assay: Table 4: LOXL2 amine oxidase activity was evaluated by measuring Amplex Red fluorescence using 10-20× concentrated conditioned media from CHO cells stably expressing human LOXL2. To assay for amine oxidase activity, 10 μL of the concentrated conditioned media was incubated with 2 μL of test compound in DMSO and 73 μL Assay Buffer (50 mM Borate Buffer, pH8) for 2 h at 37° C. After the 2 h incubation, 5 μL of 10 mM 1,5-Diaminopentane (DAP) diluted in Assay Buffer and 10 μL of Amplex Red Mix (8.5 μL Assay Buffer+0.5 μL of 10 mM Amplex Red+1 μL of 500 U/ml Horseradish Peroxidase) were added and the plate mixed and immediately placed on the FlexStation for fluorescence measurements. Fluorescence was read in kinetic mode every 2 min for 0.5-1 hour at excitation=544 and emission=590. The amine oxidase activity was calculated from the slope of the linear portion of the curve. Wells containing vehicle (DMSO) represented maximum activity and were set to 0% inhibition and wells containing 100 μM βAPN (3-aminopropionitrile) represented no activity and were set to 100% inhibition.
T2 sequence (Q9Y4K0 whole entry): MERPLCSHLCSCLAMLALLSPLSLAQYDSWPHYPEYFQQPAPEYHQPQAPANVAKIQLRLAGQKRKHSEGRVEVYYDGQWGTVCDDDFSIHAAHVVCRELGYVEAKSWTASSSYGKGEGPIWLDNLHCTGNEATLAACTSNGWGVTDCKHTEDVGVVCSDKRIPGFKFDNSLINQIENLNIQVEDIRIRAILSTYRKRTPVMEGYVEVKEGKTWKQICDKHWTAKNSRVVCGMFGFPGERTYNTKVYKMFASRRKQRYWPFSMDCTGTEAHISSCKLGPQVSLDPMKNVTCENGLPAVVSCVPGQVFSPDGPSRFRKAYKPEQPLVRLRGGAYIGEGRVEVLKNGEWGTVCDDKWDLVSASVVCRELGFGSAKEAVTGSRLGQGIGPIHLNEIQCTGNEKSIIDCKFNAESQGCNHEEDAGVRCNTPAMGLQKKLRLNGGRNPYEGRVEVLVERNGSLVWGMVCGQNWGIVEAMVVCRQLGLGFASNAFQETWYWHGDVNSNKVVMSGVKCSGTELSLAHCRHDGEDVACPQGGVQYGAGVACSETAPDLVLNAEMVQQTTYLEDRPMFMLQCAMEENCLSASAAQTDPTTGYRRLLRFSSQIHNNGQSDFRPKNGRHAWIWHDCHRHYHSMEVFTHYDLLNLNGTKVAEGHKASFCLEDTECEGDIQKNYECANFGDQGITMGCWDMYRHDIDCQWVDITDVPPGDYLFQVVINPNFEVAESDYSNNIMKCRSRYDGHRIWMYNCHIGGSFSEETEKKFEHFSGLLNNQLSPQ

NCc1cc(Oc2ccnc(C(=O)Nc3cccc(-c4nncn4C4CC4)c3)c2)nc(C(F)(F)F)c1
IC50 [1]: > 1000 nM | IC50 (Lysyl oxidase homolog 2): < 300 nM
